Test system: DENV-1/45AZ5
Assay: NHP DENV-1 study, IgM/IgG ELISA
Conditions: Negative = 100

COc1cc(N[C@H](C(=O)c2c[nH]c3ccc(OC(F)(F)F)cc23)c2ccc(Cl)cc2OC)cc(S(C)(=O)=O)c1 [JNJ-1802]
100: IgM ELISA Titer (animal R8, Day 0) | IgG ELISA Titer (animal R8, Day 5) | IgM ELISA Titer (animal R8, Day 5) | IgG ELISA Titer (animal R8, Day 7) | IgM ELISA Titer (animal R8, Day 7) | IgG ELISA Titer (animal R8, Day 9) | IgM ELISA Titer (animal R8, Day 9) | IgG ELISA Titer (animal R8, Day 11) | IgM ELISA Titer (animal R8, Day 11) | IgG ELISA Titer (animal R8, Day 14) | IgM ELISA Titer (animal R8, Day 14) | IgG ELISA Titer (animal R8, Day 29) | IgM ELISA Titer (animal R8, Day 29) | IgG ELISA Titer (animal R9, Day 0) | IgM ELISA Titer (animal R9, Day 0) | IgG ELISA Titer (animal R9, Day 5) | IgM ELISA Titer (animal R9, Day 5) | IgG ELISA Titer (animal R9, Day 7) | IgM ELISA Titer (animal R9, Day 7) | IgG ELISA Titer (animal R9, Day 9) | IgM ELISA Titer (animal R9, Day 9) | IgG ELISA Titer (animal R9, Day 11) | IgM ELISA Titer (animal R9, Day 11) | IgG ELISA Titer (animal R9, Day 14) | IgM ELISA Titer (animal R9, Day 14) | IgG ELISA Titer (animal R9, Day 29) | IgM ELISA Titer (animal R9, Day 29) | IgG ELISA Titer (animal R10, Day 0) | IgM ELISA Titer (animal R10, Day 0) | IgG ELISA Titer (animal R10, Day 5) | IgM ELISA Titer (animal R10, Day 5) | IgG ELISA Titer (animal R10, Day 7) | IgM ELISA Titer (animal R10, Day 7) | IgG ELISA Titer (animal R10, Day 9) | IgM ELISA Titer (animal R10, Day 9) | IgG ELISA Titer (animal R10, Day 11) | IgM ELISA Titer (animal R10, Day 11) | IgG ELISA Titer (animal R10, Day 14) | IgM ELISA Titer (animal R10, Day 14) | IgG ELISA Titer (animal R10, Day 29) | IgM ELISA Titer (animal R10, Day 29) | IgG ELISA Titer (animal R11, Day 0) | IgM ELISA Titer (animal R11, Day 0) | IgG ELISA Titer (animal R11, Day 5) | IgM ELISA Titer (animal R11, Day 5) | IgG ELISA Titer (animal R11, Day 7) | IgM ELISA Titer (animal R11, Day 7) | IgG ELISA Titer (animal R11, Day 9) | IgM ELISA Titer (animal R11, Day 9) | IgG ELISA Titer (animal R11, Day 11) | IgM ELISA Titer (animal R11, Day 11) | IgG ELISA Titer (animal R11, Day 14) | IgM ELISA Titer (animal R11, Day 14) | IgG ELISA Titer (animal R11, Day 29) | IgM ELISA Titer (animal R11, Day 29) | IgG ELISA Titer (animal R12, Day 0) | IgM ELISA Titer (animal R12, Day 0) | IgG ELISA Titer (animal R12, Day 5) | IgM ELISA Titer (animal R12, Day 5) | IgG ELISA Titer (animal R12, Day 7) | IgM ELISA Titer (animal R12, Day 7) | IgG ELISA Titer (animal R12, Day 9) | IgM ELISA Titer (animal R12, Day 9) | IgG ELISA Titer (animal R12, Day 11) | IgM ELISA Titer (animal R12, Day 11) | IgG ELISA Titer (animal R12, Day 14) | IgM ELISA Titer (animal R12, Day 14) | IgG ELISA Titer (animal R12, Day 29) | IgM ELISA Titer (animal R12, Day 29)
